In US12319699B2, “L-proline sulfonamide derivatives comprising pyrazolo[4,3-e]tetrazolo[4,5-b][1,2,4]triazine system, method of manufacturing thereof, uses thereof and pharmaceutical composition comprising the same” (UNIWERSYTET MEDYCZNY W BIALYMSTOKU, priority 2018, dated 2025):

Legend:
[1] = tested on: DLD-1 human colorectal cancer cells; assay: DNA biosynthesis, [3H]-thymidine incorporation; type: cell-based; details: DLD-1, 24-hour incubation
Description: (§1) DLD-1 human colorectal cancer cells (ATCC CCL-221, Manassas, VA, USA) were grown in DMEM (Dulbecco's Modified Eagle's Medium) supplemented with 10% fetal bovine serum (FBS), 2 mM glutamine, 50 U/ml penicillin, 50 μg/ml streptomycin at 37° C., in atmosphere containing 5% of CO2. Then the cells were counted in a hemocytometer and transferred in the amount of 1×10^6 cells per well in 1 ml of culture medium from Costar flasks (Sigma, USA) to Nunc 6-well plates (Wiesbaden, Germany). The cells were transferred using calcium-free phosphate buffer with the addition of 0.05% trypsin and 0.02% EDTA. […] Within the subsequent 24 hours the cells covered at least 80% of the surface of each plate well. The cells prepared in this manner were incubated with the examined compounds for 24 hours and then used for further experiments.
(§2) The effect of the examined compounds according to the invention on the process of DNA biosynthesis was assessed by measuring incorporation of [^3H]-thymidine into DNA of the examined cells. […] After 5 minutes, the cell lysate obtained was transferred to scintillation vials containing 2 ml of scintillation fluid and radioactivity was measured. […] The values from the examined samples were expressed as percentage of the control value. The significance level p was determined by the nonparametric Mann-Whitney U test by means of SigmaStat software. […]

[2] = tested on: HT-29 human colorectal cancer cells; assay: DNA biosynthesis, [3H]-thymidine incorporation; type: cell-based; details: HT-29, 24-hour incubation
Description: HT-29 human colorectal cancer cells (ATCC HTB-38, Manassas, VA, USA) were cultured in McCoy's 5A medium supplemented with 10% fetal bovine serum (FBS), 2 mM glutamine, 50 U/ml penicillin, 50 μg/ml of streptomycin at 37° C., in atmosphere containing 5% CO2. Subsequently, the cells were counted in a hemocytometer and were transferred in the amount of 1×10^6 cells per well in 1 ml of culture medium from Costar flasks (Sigma, USA) to Nunc 6-well plates (Wiesbaden, Germany). The cells were transferred using calcium-free phosphate buffer with the addition of 0.05% trypsin and 0.02% EDTA. […] Within the subsequent 24 hours the cells covered at least 80% of the surface of each plate well. The cells prepared in this manner were incubated with the examined compounds for 24 hours and then used for further experiments.
as §2

[3] = tested on: DLD-1 colorectal cancer cells; assay: Induction of apoptosis, Annexin V-FITC / propidium iodide flow cytometry; type: cell-based, human; details: 24 hours
Description: as §1
Induction of apoptosis was examined by a method using fluorescein isothiocyanate-labelled Annexin V (Annexin V-FITC) which forms complexes with phosphatidylserine in the presence of calcium ions. The complexes were determined using FITC Annexin V Apoptosis Detection Kit II (BD Biosciences, USA) and a flow cytometer BD FACSCanto H (BD Biosciences Systems, San Jose, CA, USA). The analysis of results was carried out by means of FACSDiva software (BD Biosciences Systems, San Jose, CA USA).
DLD-1 and HT-29 cells were incubated for 24 hours in an incubator at 37° C. in a 5% CO2 atmosphere with medium containing the examined compounds according to the invention at specific concentrations. Both examined compounds were used at a concentration of 1.5 μM and 3.0 μM. After the incubation period, the medium was removed, a binding buffer included in the kit was added and the cells were suspended in the buffer. In order to calibrate the apparatus two control samples, i.e. a positive one and a negative one, were prepared. The positive control constituted a reference of control cells in which apoptosis was induced by the addition of 3% formaldehyde. Three control samples were prepared. The first sample contained control cells and propidium iodide, the second sample contained control cells and Annexin V-FITC and the third sample contained control cells, propidium iodide and Annexin V-FITC. After adding 2 μl of 3% formaldehyde the cells were placed in a refrigerator for 10 minutes. Cells that were not treated with any agent constituted the negative control. The cells from the control samples and the cells treated by the examined compounds according to the invention (1×10^6 cells/ml) suspended in the buffer included in the kit were subjected to further examination. 200 μl suspension were taken from each examined sample and were transferred to test tubes. 3 μl Annexin V-FITC and 5 μl propidium iodide (PI) were added to each sample in room temperature and the samples were placed in a dark place for 15 minutes. Cell suspension prepared in this manner was analyzed within one hour in the flow cytometer BD FACSCanto II (BD Biosciences Systems, San Jose, CA, USA) by means of FACSDiva software. The results of the above experiment can be described as follows: live cells (double negative sample—lack of reaction with Annexin V and P), early apoptosis (Annexin V positive and PI negative sample), late apoptosis (Annexin V positive and PI positive sample) and necrosis (Annexin V negative and PI positive sample)

[4] = DLD-1, 3.0 μM, listed as compound of Formula 3

SMILES | IC50 [1] [µM] | IC50 [2] [µM] | Early apoptosis ([3]; DLD-1, 1.5 μM) [%] | Late apoptosis ([3]; DLD-1, 1.5 μM) [%] | Live cells ([3]; DLD-1, 1.5 μM) [%] | Necrosis ([3]; DLD-1, 1.5 μM) [%] | early and late apoptotic cells (total) ([3]; DLD-1, 1.5 μM) [%] | Necrosis ([3]; DLD-1, 1.5 μM, listed as compound of Formula 3) [%] | Early apoptosis ([3]; DLD-1, 3.0 μM) [%] | Late apoptosis ([3]; DLD-1, 3.0 μM) [%] | Live cells ([3]; DLD-1, 3.0 μM) [%] | Necrosis ([3]; DLD-1, 3.0 μM) [%] | Early apoptosis [3, 4] [%] | Late apoptosis [3, 4] [%] | Necrosis [3, 4] [%] | Necrosis ([3]; DLD-1, 1.5 μM, listed as compound of Formula 2) [%] | early and late apoptotic cells (total) ([3]; DLD-1, 3.0 μM) [%] | Necrosis ([3]; DLD-1, 3.0 μM, listed as compound of Formula 2) [%]
COC(=O)C1CC(O)CN1S(=O)(=O)c1ccc(-n2nc(C)c3nc4nnnn4nc32)cc1 (centres unmarked) [Compound of Formula 3, Methyl 4-hydroxy-1-[4-(7-methyl-5H-pyrazolo[4,3-e]tetrazolo[4,5-b][1,2,4]triazyn-5-yl)phenylsulfonyl]pyrrolidine-2-carboxylate] | 1.55 ± 0.02 | 2.3 ± 0.02 | 17.0 | 32.1 | 43.9 | 7.0 | 49.1 | 7.0 | 1.7 | 80.8 | 11.0 | 6.5 | 1.7 | 80.8 | 6.5 | – | – | –
COC(=O)C1CCCN1S(=O)(=O)c1ccc(-n2nc(C)c3nc4nnnn4nc32)cc1 (centres unmarked) [Compound of Formula 2, Methyl 1-[4-(7-methyl-5H-pyrazol[4,3-e]tetrazolo[4,5-b][1,2,4]triazyn-5-yl)phenylsulfonyl]pyrrolidine-2-carboxylate] | 0.56 ± 0.01 | 3.62 ± 0.02 | 13.1 | 9.6 | 74.8 | 2.5 | 22.7 | – | 16.4 | 30.0 | 47.1 | 6.6 | – | – | – | 2.5 | 46.4 | 6.6
